This is an account of results in US12617771B2, “Diphenylpyrazole compound, and preparation method therefor and application thereof” (NORTHWEST A&F UNIVERSITY, priority 2021, dated 2026).

Common to all, as to assay type: biochemical
In one test the target is Spodoptera litura GSTs. The test can be described thus: Inhibition of total GSTs enzyme of Spodoptera litura (CDNB method). The procedure: (§1) Experiment: About 50 mg of larvae/nymphs of nine major pests such as Plutella xylostella, Mythimna separata, Pyrausta nubilalis, Chilo suppressalis, Nilaparvata lugens, Spodoptera frugiperda, Helicoverpa armigera, Carposina sasakii, Spodoptera litura were taken, grounded in a mortar pre-cooled at −80° C., and then 1 mL of 100 mM sodium phosphate buffer (1 mM EDTA, pH 7.2) was added and fully homogenized. The homogenate was transferred to a 1.5 mL centrifuge tube at 4° C., and centrifuged at 14,000 g for 30 minutes, and the supernatant was transferred to a new centrifuge tube as the GSTs total enzyme. The protein concentrations of the above total enzymes were determined using the BCA method.
(§2) 100 μL of PBS buffer (100 mM, pH 7.2) containing 1 mM GSH was taken and placed in a 96-well plate, 5 μg of insect total GSTs enzymes and an appropriate concentration of compounds PXG1-PXG29 (29 compounds) of the present invention were added to each well, after uniformly mixing, and allowed to stand at 30° C. for 10 min. Then 100 μL of PBS buffer (100 mM, pH 7.2) containing 1 mM CDNB was added to each well. Immediately after mixing, the mixture was placed in a microplate reader to measure the absorbance at a wavelength of 340 nm (A 340) once every 1 min, the measurement was carried out continuously for 5 min, the light absorption values of each measuring point were recorded and the inhibition rate in vitro of the compounds with different concentrations against insects total GSTs enzymes were calculated. Each group of assays was repeated three times, and total GSTs enzymes inactivated at 100° C. for 5 min were used as negative controls, and GTX was used as positive controls. GraphPad Prism 5 software was used for analysis and calculation of IC50. Relative inhibition was calculated using the following formula:
(§3) [formula] • wherein, A340 is the change of A340 within 5 minutes for the control group, and A340t is the change of A340 within 5 minutes for the experimental group.

For another test, the target named is PxGSTσ1 (Plutella xylostella, UniProt Q6F436). The test can be described thus: Inhibition of PxGSTσ1 recombinant protein. The settings on record: read-out: 100 μM Inhibition rate %. As to the method:
(§4) Experiment: 100 μL of PBS buffer (100 mM, pH 7.2) was taken and added to a 96-well plate, 1 μg of PxGSTs recombinant protein and an appropriate concentration of the compounds PXG1-PXG29 of the present invention were added to each well, after uniformly mixing, and allowed to stand at 30° C. for 10 min. Then 100 μL of PBS buffer (100 mM, pH 7.2) containing 1 mM CDNB and 1 mM GSH was successively added to each well. Immediately after mixing, the mixture was placed in a microplate reader to measure the absorbance at a wavelength of 340 nm (A340) once every 1 min, the measurement was continued for 5 min, the light absorption values of each measuring point were recorded and the inhibition rate in vitro of the compounds PXG1-PXG29 of the present invention with different concentrations against PxGSTs recombinant protein were calculated. Each group of assays was repeated three times, and PxGSTs recombinant protein inactivated at 100° C. for 5 min was used as negative control, and GTX was used as positive control. GraphPad Prism 5 software was used for analysis and calculation of IC50. Relative inhibition was calculated using the following formula:
(§5) [formula] • wherein, A340c is the change of A340 […] the control group, an A340t is the change of A340 within 5 minutes for the experimental group.

The target in another test is Nilaparvata lugens GSTs. The test can be described thus: Inhibition of total GSTs enzyme of Nilaparvata lugens (CDNB method). The procedure: as §1, §2, §3
A further test has as its target Mythimna separata GSTs. The test can be described thus: Inhibition of total GSTs enzyme of Mythimna separata (CDNB method). As to the method:
as §1, §2, §3

Test [1] concerns the target Spodoptera frugiperda GSTs. The experiment in a line: Inhibition of total GSTs enzyme of Spodoptera frugiperda (CDNB method). The procedure:
as §1, §2, §3

In the next test the target is PxGSTσ2 (Plutella xylostella, UniProt Q6F443). The experiment in a line: Inhibition of PxGSTσ2 recombinant protein. The settings on record: read-out: 100 μM Inhibition rate %. As to the method:
as §4, §5

In another test the target is Pyrausta nubilalis GSTs. The experiment in a line: Inhibition of total GSTs enzyme of Pyrausta nubilalis (CDNB method). The procedure: as §1, §2, §3
Another test has as its target Chilo suppressalis GSTs. The experiment in a line: Inhibition of total GSTs enzyme of Chilo suppressalis (CDNB method). As to the method:
as §1, §2, §3

A further test has as its target PxGSTδ1 (Plutella xylostella, UniProt D7URW9). The test can be described thus: Inhibition of PxGSTδ1 recombinant protein. The conditions noted are these: read-out: 100 μM Inhibition rate %. As to the method:
as §4, §5

For a further test, the target named is Carposina sasakii GSTs. The test can be described thus: Inhibition of total GSTs enzyme of Carposina sasakii (CDNB method). As to the method: as §1, §2, §3
For test [2], the target named is Helicoverpa armigera GSTs. The test can be described thus: Inhibition of total GSTs enzyme of Helicoverpa armigera (CDNB method). The procedure: as §1, §2, §3
Another test has as its target Plutella xylostella GSTs. The experiment in a line: Inhibition of total GSTs enzyme of Plutella xylostella (CDNB method). As to the method: as §1, §2, §3
The target in another test is PxGSTε3 (Plutella xylostella, UniProt O77409). The test can be described thus: Inhibition of PxGSTε3 recombinant protein. The settings on record: read-out: 100 μM Inhibition rate %. The procedure: as §4, §5
Sequence of PxGSTε3 (O77409 entry or part of it): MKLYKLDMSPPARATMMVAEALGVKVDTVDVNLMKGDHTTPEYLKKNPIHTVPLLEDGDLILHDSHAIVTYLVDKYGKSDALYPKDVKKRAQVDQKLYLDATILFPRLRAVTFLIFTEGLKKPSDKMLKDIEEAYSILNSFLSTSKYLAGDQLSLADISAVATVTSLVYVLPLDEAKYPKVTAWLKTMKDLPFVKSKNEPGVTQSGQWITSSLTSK

Sequence of PxGSTσ1 (Q6F436 entry or part of it): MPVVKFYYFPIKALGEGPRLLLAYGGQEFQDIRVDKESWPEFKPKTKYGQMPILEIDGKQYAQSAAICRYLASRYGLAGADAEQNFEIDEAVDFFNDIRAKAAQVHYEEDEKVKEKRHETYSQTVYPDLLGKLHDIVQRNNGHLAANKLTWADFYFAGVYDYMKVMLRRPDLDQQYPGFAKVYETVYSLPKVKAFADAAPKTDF
Sequence of PxGSTσ2 (Q6F443 entry or part of it): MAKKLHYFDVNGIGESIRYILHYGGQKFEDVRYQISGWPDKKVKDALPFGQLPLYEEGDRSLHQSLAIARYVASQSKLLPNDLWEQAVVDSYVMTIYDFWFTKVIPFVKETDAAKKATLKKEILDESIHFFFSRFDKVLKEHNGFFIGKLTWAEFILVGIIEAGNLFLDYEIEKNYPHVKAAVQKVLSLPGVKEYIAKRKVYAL
Sequence of PxGSTδ1 (D7URW9 entry or part of it): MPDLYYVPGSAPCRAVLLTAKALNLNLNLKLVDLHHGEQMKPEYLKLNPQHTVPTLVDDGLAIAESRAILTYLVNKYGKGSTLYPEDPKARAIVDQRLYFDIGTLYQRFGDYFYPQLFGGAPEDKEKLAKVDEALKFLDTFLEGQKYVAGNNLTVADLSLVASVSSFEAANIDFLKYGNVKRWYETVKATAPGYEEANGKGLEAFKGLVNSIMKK

For `CN(C)S(=O)(=O)c1cccc(C(=O)NNC(=O)c2cc(-c3ccccc3)nn2-c2ccccc2)c1` [PXG9, 3-[N′-(1,3-diphenyl-1H-pyrazol-5-yl-carbonyl) hydrazinocarbonyl]-N,N-dimethylphenyl-1-sulfonamide], the IC50 (on Spodoptera litura GSTs; against Nilaparvata lugens GSTs; on Mythimna separata GSTs; in [1]; against Pyrausta nubilalis GSTs; at Chilo suppressalis GSTs) was over 100 µM throughout. The IC50 (at Carposina sasakii GSTs; in test [2]; on Plutella xylostella GSTs) was over 100 µM each time. Also, the “100 μM Inhibition rate %” value in the test on Spodoptera litura GSTs is on record as 12.58%; in the test on Nilaparvata lugens GSTs, −10.48%; with Mythimna separata GSTs, 2.72%; in test [1], 5.56%; in the test with Pyrausta nubilalis GSTs it was 5.71%; with Chilo suppressalis GSTs, 34.79%. Further, the entries for the “100 μM Inhibition rate %” value (with Carposina sasakii GSTs; in test [2]; in the test on Plutella xylostella GSTs) were 12.55%, 5.25% and 3.94%, respectively. The inhibition at 100 µM at PxGSTσ1 is 28.6%; at PxGSTσ2, 31.4%; on PxGSTδ1, 30.4%; on PxGSTε3 it was -3.88%.

As to `COc1ccccc1CC(=O)NNC(=O)c1cc(-c2ccccc2)nn1-c1ccccc1` [PXG10, N′-(1,3-diphenyl-1H-pyrazol-5-yl-carbonyl)-2-(2-methoxyphenyl) acetohydrazide], the IC50 (at Spodoptera litura GSTs; against Nilaparvata lugens GSTs; at Mythimna separata GSTs; in test [1]; at Pyrausta nubilalis GSTs; against Chilo suppressalis GSTs) was over 100 µM throughout. Also, the IC50 (on Carposina sasakii GSTs; in test [2]; at Plutella xylostella GSTs) was over 100 µM throughout. For the same compound, the “100 μM Inhibition rate %” value with Spodoptera litura GSTs is reported as 3.87%; in the test on Nilaparvata lugens GSTs, 19.24%; in the test with Mythimna separata GSTs it was −2.50%; in test [1] it was 20.93%; in the test with Pyrausta nubilalis GSTs it was −3.85%; in the test with Chilo suppressalis GSTs, 5.85%. In addition, the “100 μM Inhibition rate %” value is recorded as 32.54% in the test on Carposina sasakii GSTs, 9.75% in test [2] and −17.71% with Plutella xylostella GSTs. Further, the inhibition at 100 µM on PxGSTσ1 came out at 29.4%; at PxGSTσ2, 19.2%; at PxGSTδ1, 91%; at PxGSTε3, 2.03%.

As for `O=C(NNC(=O)c1cc(-c2ccccc2)nn1-c1ccccc1)c1ccccc1` [PXG11, N′-(1,3-diphenyl-1H-pyrazol-5-yl-carbonyl) benzohydrazine], the IC50 (against Spodoptera litura GSTs; against Nilaparvata lugens GSTs; against Mythimna separata GSTs; in test [1]; against Pyrausta nubilalis GSTs; against Chilo suppressalis GSTs) was over 100 µM in each case. The IC50 (at Carposina sasakii GSTs; in test [2]; at Plutella xylostella GSTs) was over 100 µM throughout. The “100 μM Inhibition rate %” value is reported as 24.52% in the test with Spodoptera litura GSTs; 8.16% in the test on Nilaparvata lugens GSTs; 31.76% in the test with Mythimna separata GSTs; 20.95% in test [1]; 23.84% in the test on Pyrausta nubilalis GSTs; 54.79% in the test with Chilo suppressalis GSTs. The “100 μM Inhibition rate %” value with Carposina sasakii GSTs is 76.09%; in test [2], 8.09%; in the test on Plutella xylostella GSTs, 22.90%. In addition, the inhibition at 100 µM was 60.7% on PxGSTσ1, 22.6% on PxGSTσ2, 35.3% at PxGSTδ1 and -7.28% on PxGSTε3.

Regarding `CC1(c2ccccc2)NC(=O)N(NC(=O)c2cc(-c3ccccc3)nn2-c2ccccc2)C1=O` (stereo not drawn) [PXG12, N-(4-methyl-2,5-dioxo-4-phenylimidazolin-1-yl)-1,3-diphenyl-1H-pyrazol-5-yl-carboxamide], the IC50 (at Spodoptera litura GSTs; against Nilaparvata lugens GSTs; against Mythimna separata GSTs; in test [1]; on Pyrausta nubilalis GSTs; against Chilo suppressalis GSTs) was over 100 µM each time. The IC50 (against Carposina sasakii GSTs; in test [2]; at Plutella xylostella GSTs) was over 100 µM in each case. The “100 μM Inhibition rate %” value with Spodoptera litura GSTs was 4.60%; in the test with Nilaparvata lugens GSTs, −3.30%; in the test on Mythimna separata GSTs, 19.42%; in [1] it was 12.52%; in the test on Pyrausta nubilalis GSTs, 19.48%; in the test on Chilo suppressalis GSTs it was 29.54%. Further, the “100 μM Inhibition rate %” value was 17.94% in the test with Carposina sasakii GSTs, −5.00% in test [2] and 15.08% in the test with Plutella xylostella GSTs. The inhibition at 100 µM at PxGSTσ1 is 48.3%; on PxGSTσ2, 33.6%; on PxGSTδ1 it was 40.2%; at PxGSTε3, 10.9%.

As for `CC1(CCc2ccccc2)NC(=O)N(NC(=O)c2cc(-c3ccccc3)nn2-c2ccccc2)C1=O` (stereo not drawn) [PXG15, N-[4-methyl-2,5-dioxo-4-(2-phenylethyl)imidazolin-1-yl]-1,3-diphenyl-1H-pyrazol-5-yl-carboxamide], the IC50 (against Spodoptera litura GSTs; at Nilaparvata lugens GSTs; at Mythimna separata GSTs; in test [1]; at Pyrausta nubilalis GSTs; on Chilo suppressalis GSTs) was over 100 µM throughout. Besides, the IC50 (at Carposina sasakii GSTs; in test [2]; at Plutella xylostella GSTs) was over 100 µM each time. Also, the “100 μM Inhibition rate %” value was −5.22% in the test on Spodoptera litura GSTs; 2.97% in the test on Nilaparvata lugens GSTs; 4.29% in the test with Mythimna separata GSTs; 0.41% in test [1]; 4.69% with Pyrausta nubilalis GSTs; 18.72% in the test on Chilo suppressalis GSTs. In addition, the “100 μM Inhibition rate %” value is 17.01% with Carposina sasakii GSTs, −1.48% in test [2] and 16.83% in the test with Plutella xylostella GSTs. The inhibition at 100 µM on PxGSTσ1 turned out to be 42.5%; at PxGSTσ2, 25.6%; on PxGSTδ1, 7.86%; on PxGSTε3, 4.62%.

As for `CC1CCC2(CC1)NC(=O)N(NC(=O)c1cc(-c3ccccc3)nn1-c1ccccc1)C2=O` (stereo not drawn) [PXG16, N-{8-methyl-2,4-dioxo-1,3-diazaspiro[4.5]dec-3-yl}-1,3-diphenyl-1H-pyrazol-5-yl-carboxamide], the IC50 (at Spodoptera litura GSTs; on Nilaparvata lugens GSTs; against Mythimna separata GSTs; in [1]; on Pyrausta nubilalis GSTs; at Chilo suppressalis GSTs) was over 100 µM each time. In addition, the IC50 (at Carposina sasakii GSTs; in [2]; on Plutella xylostella GSTs) was over 100 µM each time. The “100 μM Inhibition rate %” value in the test on Spodoptera litura GSTs is reported as −0.15%; in the test with Nilaparvata lugens GSTs, −1.00%; with Mythimna separata GSTs, 10.50%; in test [1], −1.72%; with Pyrausta nubilalis GSTs, 0.41%; in the test on Chilo suppressalis GSTs, 10.53%. Further, the “100 μM Inhibition rate %” value in the test with Carposina sasakii GSTs turned out to be 6.98%; in test [2] it was 2.28%; in the test on Plutella xylostella GSTs it was 8.64%. Also, the inhibition at 100 µM on PxGSTσ1 amounted to 70.5%; at PxGSTσ2 it was 39.3%; on PxGSTδ1, 5.35%; on PxGSTε3, 4.12%.
